Experimental data from ChEMBL document CHEMBL5634153, “Design, synthesis and preclinical evaluation of muscarine receptor antagonists via a scaffold-hopping approach” (Eur J Med Chem, 2023).
Calls of active or inactive are those of the source. The calls are words filed in the database; no cut-off is given here.

Assays:
[1] = Cytotoxicity against CHO-K1 cells expressing human muscarinic receptor M1 incubated for 72 hrs by MTT assay; format: toxicity, cell-based; settings: Chinese hamster (Cricetulus griseus)
[2] = target: Muscarinic acetylcholine receptor M3 (Homo sapiens, UniProt P20309); assay: Displacement of [3H]NMS from human muscarinic M3 receptor expressed in CHO-K1 cell membrane assessed as inhibition constant incubated for 90 mins by competitive radioligand binding assay; format: cell membranes
[3] = target: T1, Muscarinic acetylcholine receptor M2 (Homo sapiens, UniProt P08172); assay: Displacement of [3H]NMS from human muscarinic M2 receptor expressed in CHO-K1 cell membrane assessed as inhibition constant incubated for 90 mins by competitive radioligand binding assay; format: cell membranes
T1 sequence (P08172 whole entry): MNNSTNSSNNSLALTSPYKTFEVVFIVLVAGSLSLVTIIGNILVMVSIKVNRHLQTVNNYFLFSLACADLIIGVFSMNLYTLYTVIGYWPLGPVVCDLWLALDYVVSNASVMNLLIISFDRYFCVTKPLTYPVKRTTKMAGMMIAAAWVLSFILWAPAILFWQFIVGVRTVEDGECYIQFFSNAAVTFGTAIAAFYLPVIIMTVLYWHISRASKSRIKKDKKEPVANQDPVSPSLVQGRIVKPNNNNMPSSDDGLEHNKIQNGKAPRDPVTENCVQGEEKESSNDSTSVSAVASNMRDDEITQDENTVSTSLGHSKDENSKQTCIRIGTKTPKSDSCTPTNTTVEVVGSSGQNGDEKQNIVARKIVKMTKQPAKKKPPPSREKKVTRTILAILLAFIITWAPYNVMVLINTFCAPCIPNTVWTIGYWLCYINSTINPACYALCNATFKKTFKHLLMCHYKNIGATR

[4] = Lipophilicity, log P of compound at pH 7.4 by HPLC analysis; format: physicochemical; settings: buffer
[5] = target: T2, Muscarinic acetylcholine receptor M5 (Homo sapiens, UniProt P08912); assay: Displacement of [3H]NMS from human muscarinic M5 receptor expressed in CHO-K1 cell membrane assessed as inhibition constant incubated for 90 mins by competitive radioligand binding assay; format: cell membranes
T2 sequence (P08912 whole entry): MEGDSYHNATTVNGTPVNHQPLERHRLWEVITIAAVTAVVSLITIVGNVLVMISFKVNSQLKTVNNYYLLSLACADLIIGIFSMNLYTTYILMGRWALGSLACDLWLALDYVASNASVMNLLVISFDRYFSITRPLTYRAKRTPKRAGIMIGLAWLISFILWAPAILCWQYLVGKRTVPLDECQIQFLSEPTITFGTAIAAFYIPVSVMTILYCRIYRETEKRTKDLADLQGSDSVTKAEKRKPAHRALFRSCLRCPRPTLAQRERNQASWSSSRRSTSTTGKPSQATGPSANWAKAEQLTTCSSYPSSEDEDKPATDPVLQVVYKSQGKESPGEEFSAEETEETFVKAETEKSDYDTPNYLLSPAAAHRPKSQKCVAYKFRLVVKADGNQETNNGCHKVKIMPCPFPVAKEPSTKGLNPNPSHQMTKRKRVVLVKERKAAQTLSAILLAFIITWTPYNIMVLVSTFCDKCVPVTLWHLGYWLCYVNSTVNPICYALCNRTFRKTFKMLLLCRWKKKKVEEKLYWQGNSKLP

[6] = target: T3, Muscarinic acetylcholine receptor M4 (Homo sapiens, UniProt P08173); assay: Displacement of [3H]NMS from human muscarinic M4 receptor expressed in CHO-K1 cell membrane assessed as inhibition constant incubated for 90 mins by competitive radioligand binding assay; format: cell membranes
T3 sequence (P08173 whole entry): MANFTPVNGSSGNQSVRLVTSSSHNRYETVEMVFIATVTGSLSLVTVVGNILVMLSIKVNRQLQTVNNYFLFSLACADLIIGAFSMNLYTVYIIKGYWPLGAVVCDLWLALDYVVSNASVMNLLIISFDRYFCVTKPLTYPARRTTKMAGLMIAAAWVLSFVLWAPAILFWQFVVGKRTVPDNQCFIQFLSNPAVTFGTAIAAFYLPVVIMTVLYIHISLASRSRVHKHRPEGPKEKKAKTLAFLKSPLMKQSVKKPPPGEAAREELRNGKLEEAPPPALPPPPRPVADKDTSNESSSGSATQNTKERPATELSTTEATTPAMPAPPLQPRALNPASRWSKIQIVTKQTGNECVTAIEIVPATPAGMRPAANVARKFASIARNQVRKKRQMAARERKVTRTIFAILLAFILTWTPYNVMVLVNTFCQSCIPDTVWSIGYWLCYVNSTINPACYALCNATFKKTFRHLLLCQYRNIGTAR

[7] = target: T4, Muscarinic acetylcholine receptor M1 (Homo sapiens, UniProt P11229); assay: Displacement of [3H]NMS from human muscarinic M1 receptor expressed in CHO-K1 cell membrane assessed as inhibition constant incubated for 90 mins by competitive radioligand binding assay; format: cell membranes
T4 sequence (P11229 whole entry): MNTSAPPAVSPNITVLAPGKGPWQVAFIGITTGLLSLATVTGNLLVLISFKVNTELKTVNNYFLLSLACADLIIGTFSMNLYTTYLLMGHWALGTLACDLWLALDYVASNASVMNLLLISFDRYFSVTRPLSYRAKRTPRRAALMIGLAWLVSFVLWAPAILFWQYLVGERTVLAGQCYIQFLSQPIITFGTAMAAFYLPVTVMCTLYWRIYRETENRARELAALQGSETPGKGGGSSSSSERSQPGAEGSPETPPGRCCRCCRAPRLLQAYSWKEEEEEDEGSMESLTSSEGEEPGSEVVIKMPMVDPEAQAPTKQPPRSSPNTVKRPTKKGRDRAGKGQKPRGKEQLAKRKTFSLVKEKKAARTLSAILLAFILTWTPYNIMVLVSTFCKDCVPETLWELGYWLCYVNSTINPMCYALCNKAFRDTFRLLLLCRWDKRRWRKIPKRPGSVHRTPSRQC

[8] = target: T5, Muscarinic acetylcholine receptor M1 (Homo sapiens) (UniProt P11229); assay: Antagonist activity at human muscarinic M1 receptor expressed in CHO-K1 cell membrane assessed as reduction in carbachol-induced ca2+ influx by fluorescence based assay; format: functional, cell membranes; settings: filed as antagonist
T5 sequence (whole entry): T4 sequence (P11229 whole entry)

[9] = target: T5, Muscarinic acetylcholine receptor M1 (Homo sapiens); assay: Agonist activity at human muscarinic M1 receptor expressed in CHO-K1 cell membrane upto 100 uM by fluorescence based assay; format: functional, cell membranes
[10] = target: Muscarinic acetylcholine receptor M2 and M5 (Homo sapiens) (UniProt P08172+P08912); assay: Selectivity ratio of Ki for human muscarinic M2 receptor expressed in CHO-K1 cells to Ki for human muscarinic M5 receptor expressed in CHO-K1 cells; format: cell-based
Homo sapiens [11] = organism: Homo sapiens; assay: Selectivity ratio of Ki for human muscarinic M3 receptor expressed in CHO-K1 cells to Ki for human muscarinic M5 receptor expressed in CHO-K1 cells; format: cell-based
Homo sapiens [12] = organism: Homo sapiens; assay: Selectivity ratio of Ki for human muscarinic M1 receptor expressed in CHO-K1 cells to Ki for human muscarinic M5 receptor expressed in CHO-K1 cells; format: cell-based
Homo sapiens [13] = organism: Homo sapiens; assay: Selectivity ratio of Ki for human muscarinic M4 receptor expressed in CHO-K1 cells to Ki for human muscarinic M5 receptor expressed in CHO-K1 cells; format: cell-based
[14] = target: Muscarinic acetylcholine receptor M1 and M3 (Homo sapiens) (UniProt P20309+P11229); assay: Selectivity ratio of Ki for human muscarinic M1 receptor expressed in CHO-K1 cells to Ki for human muscarinic M3 receptor expressed in CHO-K1 cells; format: cell-based
Homo sapiens [15] = organism: Homo sapiens; assay: Selectivity ratio of Ki for human muscarinic M5 receptor expressed in CHO-K1 cells to Ki for human muscarinic M3 receptor expressed in CHO-K1 cells; format: cell-based
[16] = target: Muscarinic acetylcholine receptors; M2 & M3 (Homo sapiens) (UniProt P20309+P08172); assay: Selectivity ratio of Ki for human muscarinic M2 receptor expressed in CHO-K1 cells to Ki for human muscarinic M3 receptor expressed in CHO-K1 cells; format: cell-based
Homo sapiens [17] = organism: Homo sapiens; assay: Selectivity ratio of Ki for human muscarinic M4 receptor expressed in CHO-K1 cells to Ki for human muscarinic M3 receptor expressed in CHO-K1 cells; format: cell-based

Chain of Muscarinic acetylcholine receptor M3 (P20309 whole entry): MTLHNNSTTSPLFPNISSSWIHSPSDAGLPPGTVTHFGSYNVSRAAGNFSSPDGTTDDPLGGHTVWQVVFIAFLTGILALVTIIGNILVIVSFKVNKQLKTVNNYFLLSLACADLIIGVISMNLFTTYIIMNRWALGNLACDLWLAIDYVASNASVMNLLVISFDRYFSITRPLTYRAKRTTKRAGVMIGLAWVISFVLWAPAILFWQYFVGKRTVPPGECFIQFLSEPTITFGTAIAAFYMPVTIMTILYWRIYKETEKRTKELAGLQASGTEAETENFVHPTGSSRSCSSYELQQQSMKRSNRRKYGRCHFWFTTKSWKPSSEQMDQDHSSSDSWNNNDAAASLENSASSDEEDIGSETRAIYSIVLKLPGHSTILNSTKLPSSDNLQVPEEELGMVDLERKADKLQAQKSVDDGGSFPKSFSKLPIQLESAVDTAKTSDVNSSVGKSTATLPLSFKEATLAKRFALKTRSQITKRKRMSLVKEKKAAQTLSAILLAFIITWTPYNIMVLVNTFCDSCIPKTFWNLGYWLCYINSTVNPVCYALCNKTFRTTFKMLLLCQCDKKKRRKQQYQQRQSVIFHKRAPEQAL
Chain of Muscarinic acetylcholine receptors; M2 & M3 (Homo sapiens) (P20309 whole entry, looked up, one chain of several): as the sequence (P20309 whole entry) above
Chain of Muscarinic acetylcholine receptor M1 and M3 (Homo sapiens) (P20309 whole entry, looked up, one chain of several): as the sequence (P20309 whole entry) above

Row | Structure (SMILES) | Ki [2] | Ki [3] | logP [4] | Ki [5] | Ki [6] | Ki [7] | Activity [8] | Activity [9] | IC50 at 72 h [1] | Ratio Ki [10] | Ratio Ki (Homo sapiens [11]) | Ratio Ki (Homo sapiens [12]) | Ratio Ki (Homo sapiens [13]) | Ratio Ki [14] | Ratio Ki (Homo sapiens [15]) | Ratio Ki [16] | Ratio Ki (Homo sapiens [17])
1 | CN1[C@@H]2C[C@@H](Oc3nc4ccccc4n3-c3ccccc3)C[C@H]1[C@@H]1O[C@@H]12 | 350 nM | > 1000 nM | 3.04 | 164 nM | 189 nM | 285 nM | – | – | ≥ 100000 nM | – | – | – | – | – | – | – | –
2 | CN1[C@@H]2CC[C@H]1C[C@@H](OC(=O)N(c1ccccc1)c1ccccc1)C2 | > 1000 nM | > 1000 nM | 2.69 | > 1000 nM | > 1000 nM | > 1000 nM | – | – | ≥ 100000 nM | – | – | – | – | – | – | – | –
3 | CN1[C@@H]2CC[C@H]1C[C@H](Oc1nc3ccccc3n1-c1ccccc1)C2 | 17 nM | 16 nM | 3.05 | 8.1 nM | 11 nM | 9 nM | Dose-Dependent Effect | inactive | ≥ 100000 nM | – | – | – | – | – | – | – | –
4 | CN1[C@@H]2CC[C@H]1C[C@@H](Oc1nc3ccccc3n1-c1ccccc1)C2 | 46 nM | 442 nM | 2.73 | > 1000 nM | 201 nM | 101 nM | – | – | ≥ 100000 nM | – | – | – | – | 2.5 | 2.5 | 2.5 | 2.5
5 | CN1[C@@H]2CC[C@H]1C[C@H](OC(=O)N(c1ccccc1)c1ccccc1)C2 | 108 nM | 222 nM | 1.58 | 75 nM | 50 nM | 44 nM | Dose-Dependent Effect | inactive | ≥ 100000 nM | – | – | – | – | – | – | – | –
6 | c1ccc(-n2c(O[C@H]3CN4CCC3CC4)nc3ccccc32)cc1 | 3.7 nM | 70 nM | 1.2 | 2.6 nM | 9.4 nM | 16 nM | – | – | ≥ 100000 nM | 1.4 | 1.4 | 1.4 | 1.4 | – | – | – | –
7 | CN1[C@@H]2C[C@@H]3C[C@H]1C(O3)C2OC(=O)N(c1ccccc1)c1ccccc1 (some centres undefined) | > 1000 nM | > 1000 nM | 1.58 | > 1000 nM | > 1000 nM | > 1000 nM | Dose-Dependent Effect | inactive | ≥ 100000 nM | – | – | – | – | – | – | – | –

Continued, in another order:

Row | Ki [2] | Ki [3] | logP [4] | Ki [5] | Ki [6] | Ki [7] | Activity [8] | Activity [9] | Structure (SMILES) | IC50 at 72 h [1] | Ratio Ki [10] | Ratio Ki (Homo sapiens [11]) | Ratio Ki (Homo sapiens [12]) | Ratio Ki (Homo sapiens [13]) | Ratio Ki [14] | Ratio Ki (Homo sapiens [15]) | Ratio Ki [16] | Ratio Ki (Homo sapiens [17])
8 | 123 nM | > 1000 nM | 1.91 | 105 nM | 156 nM | 217 nM | Dose-Dependent Effect | inactive | CN1CCC(OC(=O)N(c2ccccc2)c2ccccc2)C1 (centres undefined) | ≥ 100000 nM | – | – | – | – | – | – | – | –
9 | > 1000 nM | > 1000 nM | 2.69 | > 1000 nM | > 1000 nM | > 1000 nM | – | – | CN1CCCC(OC(=O)N(c2ccccc2)c2ccccc2)C1 (centres undefined) | ≥ 100000 nM | – | – | – | – | – | – | – | –
10 | 60 nM | 258 nM | 2.81 | 14 nM | 65 nM | 51 nM | Dose-Dependent Effect | inactive | CN1CCC(Oc2nc3ccccc3n2-c2ccccc2)C1 (racemic) | ≥ 100000 nM | 18 | 4 | 4 | 4 | – | – | – | –
11 | 236 nM | 385 nM | 3.2 | 77 nM | 152 nM | 288 nM | – | – | CN1CCCC(Oc2nc3ccccc3n2-c2ccccc2)C1 (racemic) | ≥ 100000 nM | – | – | – | – | – | – | – | –
12 | > 1000 nM | > 1000 nM | 2.6 | > 1000 nM | > 1000 nM | > 1000 nM | – | – | CN1CC(Oc2nc3ccccc3n2-c2ccccc2)C1 | ≥ 100000 nM | – | – | – | – | – | – | – | –
13 | 339 nM | > 1000 nM | 1.82 | > 1000 nM | 244 nM | > 1000 nM | – | – | CN1CC(OC(=O)N(c2ccccc2)c2ccccc2)C1 | ≥ 100000 nM | – | – | – | – | – | – | – | –
14 | 21 nM | 108 nM | 2.94 | 18 nM | 32 nM | 20 nM | Dose-Dependent Effect | inactive | CN1CCC(Oc2nc3ccccc3n2-c2ccccc2)CC1 | ≥ 100000 nM | – | – | – | – | – | – | – | –
15 | > 1000 nM | > 1000 nM | – | – | > 1000 nM | – | – | – | CN1CCN(Cc2nc3cccnc3n2-c2ccccc2C(=O)O)CC1 | – | – | – | – | – | – | – | – | –
16 | 121 nM | > 1000 nM | 2.11 | 255 nM | 158 nM | 255 nM | Dose-Dependent Effect | inactive | CN1CCC(OC(=O)N(c2ccccc2)c2ccccc2)CC1 | ≥ 100000 nM | – | – | – | – | – | – | – | –
